Assay results reported in ChEMBL document CHEMBL1921764, “Substrate profiling of IGF-1R and InsR: identification of a potent pentamer substrate” (Bioorg Med Chem Lett, 2011).
Active and inactive are the calls of the source. The rule behind the calls is not given here. Peptide text beside a SMILES is read from it.

Key:
[1] = molecular target: Insulin-like growth factor 1 receptor (Homo sapiens) (UniProt P08069); assay: Activity of pre-activated human GST-His6-tagged IGF-1R assessed as compound phosphorylation at 500 uM measured every 2 mins for 60 mins by ADP-Quest assay
[2] = molecular target: Insulin receptor (Homo sapiens) (UniProt P06213); assay: Activity of pre-activated human GST-His6-tagged InsR assessed as compound phosphorylation at 500 uM measured every 2 mins for 60 mins by ADP-Quest assay
Chain of Insulin receptor (Homo sapiens) (P06213 28-758 limits assumed): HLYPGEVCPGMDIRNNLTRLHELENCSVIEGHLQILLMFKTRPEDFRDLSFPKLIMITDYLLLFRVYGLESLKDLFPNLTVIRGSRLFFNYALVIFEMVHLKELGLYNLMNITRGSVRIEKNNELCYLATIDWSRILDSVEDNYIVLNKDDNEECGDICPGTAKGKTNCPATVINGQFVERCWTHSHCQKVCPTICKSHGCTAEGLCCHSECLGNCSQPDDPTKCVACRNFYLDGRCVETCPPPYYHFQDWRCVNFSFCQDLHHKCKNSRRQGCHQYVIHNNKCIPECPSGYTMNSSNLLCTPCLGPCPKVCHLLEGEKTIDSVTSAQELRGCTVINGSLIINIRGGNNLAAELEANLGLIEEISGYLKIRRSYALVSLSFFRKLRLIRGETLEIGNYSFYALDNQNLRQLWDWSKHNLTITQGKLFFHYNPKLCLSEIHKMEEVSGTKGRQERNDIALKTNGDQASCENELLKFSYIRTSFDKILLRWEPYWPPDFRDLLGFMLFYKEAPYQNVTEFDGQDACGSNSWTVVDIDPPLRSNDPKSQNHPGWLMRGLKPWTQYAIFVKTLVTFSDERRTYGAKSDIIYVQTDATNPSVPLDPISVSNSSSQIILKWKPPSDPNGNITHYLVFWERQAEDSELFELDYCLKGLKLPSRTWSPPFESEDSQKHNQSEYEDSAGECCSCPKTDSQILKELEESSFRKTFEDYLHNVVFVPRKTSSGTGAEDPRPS
Chain of Insulin receptor (Homo sapiens) (P06213 763-1382 limits assumed): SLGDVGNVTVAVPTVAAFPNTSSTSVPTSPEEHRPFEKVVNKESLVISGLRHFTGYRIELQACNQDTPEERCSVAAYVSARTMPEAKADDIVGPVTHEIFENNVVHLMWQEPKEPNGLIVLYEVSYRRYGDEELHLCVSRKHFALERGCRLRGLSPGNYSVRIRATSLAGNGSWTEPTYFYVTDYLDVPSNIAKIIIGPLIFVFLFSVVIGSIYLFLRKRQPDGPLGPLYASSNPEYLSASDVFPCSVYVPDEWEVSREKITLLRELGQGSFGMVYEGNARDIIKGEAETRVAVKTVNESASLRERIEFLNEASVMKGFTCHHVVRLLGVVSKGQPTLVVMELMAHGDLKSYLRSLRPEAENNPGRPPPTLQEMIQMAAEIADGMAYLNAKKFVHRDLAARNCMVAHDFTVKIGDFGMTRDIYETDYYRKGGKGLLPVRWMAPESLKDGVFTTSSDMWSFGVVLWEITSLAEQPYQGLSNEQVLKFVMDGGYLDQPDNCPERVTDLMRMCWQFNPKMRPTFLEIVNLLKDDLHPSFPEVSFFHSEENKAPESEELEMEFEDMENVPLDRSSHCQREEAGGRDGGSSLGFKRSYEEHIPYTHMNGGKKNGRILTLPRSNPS

Chain of Insulin-like growth factor 1 receptor (Homo sapiens) (P08069 31-736 limits assumed): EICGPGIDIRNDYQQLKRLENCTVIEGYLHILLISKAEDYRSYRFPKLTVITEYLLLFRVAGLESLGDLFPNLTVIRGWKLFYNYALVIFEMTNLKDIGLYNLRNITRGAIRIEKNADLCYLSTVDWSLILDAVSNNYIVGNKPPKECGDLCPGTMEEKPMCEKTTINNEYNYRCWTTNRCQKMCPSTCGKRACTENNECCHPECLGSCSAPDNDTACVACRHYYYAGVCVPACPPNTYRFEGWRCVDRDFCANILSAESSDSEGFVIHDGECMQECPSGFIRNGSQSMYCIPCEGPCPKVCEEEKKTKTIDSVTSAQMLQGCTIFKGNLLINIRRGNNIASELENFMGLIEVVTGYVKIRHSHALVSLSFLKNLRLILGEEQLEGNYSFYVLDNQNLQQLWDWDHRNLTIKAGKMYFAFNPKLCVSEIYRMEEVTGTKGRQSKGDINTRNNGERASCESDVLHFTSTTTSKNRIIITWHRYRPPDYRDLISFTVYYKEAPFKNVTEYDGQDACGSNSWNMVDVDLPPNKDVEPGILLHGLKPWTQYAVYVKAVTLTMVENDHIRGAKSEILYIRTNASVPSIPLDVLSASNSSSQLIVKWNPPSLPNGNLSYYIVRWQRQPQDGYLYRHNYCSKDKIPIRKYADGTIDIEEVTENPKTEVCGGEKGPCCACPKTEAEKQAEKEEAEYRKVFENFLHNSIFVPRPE
Chain of Insulin-like growth factor 1 receptor (Homo sapiens) (P08069 741-1367 limits assumed): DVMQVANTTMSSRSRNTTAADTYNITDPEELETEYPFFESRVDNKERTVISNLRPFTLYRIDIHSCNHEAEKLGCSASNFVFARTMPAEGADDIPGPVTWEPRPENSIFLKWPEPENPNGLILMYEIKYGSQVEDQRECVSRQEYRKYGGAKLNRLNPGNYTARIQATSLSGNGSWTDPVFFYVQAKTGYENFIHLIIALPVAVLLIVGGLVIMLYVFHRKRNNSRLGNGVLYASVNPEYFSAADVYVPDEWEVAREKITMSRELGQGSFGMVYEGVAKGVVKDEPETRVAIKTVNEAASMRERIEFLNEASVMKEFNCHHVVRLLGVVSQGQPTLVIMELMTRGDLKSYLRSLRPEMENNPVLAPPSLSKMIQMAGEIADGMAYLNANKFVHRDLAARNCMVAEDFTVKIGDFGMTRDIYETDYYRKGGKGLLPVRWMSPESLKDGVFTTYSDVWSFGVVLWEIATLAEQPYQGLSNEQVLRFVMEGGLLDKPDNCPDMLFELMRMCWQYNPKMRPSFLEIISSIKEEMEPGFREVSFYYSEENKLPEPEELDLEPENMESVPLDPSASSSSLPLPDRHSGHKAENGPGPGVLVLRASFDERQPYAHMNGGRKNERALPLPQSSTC

Row | Activity [1] | Activity [2] | Molecule
1 | inactive | inactive | H-KKKSPGEYVNAEFG-OH
2 | inactive | inactive | N[C@@H](CC(=O)O)C(=O)N[C@@H](Cc1ccc(O)cc1)C(=O)N[C@@H](Cc1ccccc1)C(=O)N[C@@H](CCC(=O)O)C(=O)O (H-DYFE-OH)
3 | inactive | inactive | H-PGEYVNI-OH
4 | inactive | inactive | H-PGEYVN-OH
5 | inactive | inactive | H-KKKSPGEYVNIEAG-OH
6 | inactive | inactive | H-GEYVN-OH
7 | inactive | inactive | H-SPGEYVNIE-OH
8 | inactive | inactive | H-KSPGEYVNIE-OH
9 | inactive | inactive | H-EQEDEPEGDYFEALE-OH
10 |  | inactive | H-GDYFE-OH
11 | inactive | inactive | H-EQEDEPEGAYFEWLE-OH
12 | inactive | inactive | H-SPGEYVNI-OH

Row | Molecule | Activity [1] | Activity [2]
13 | N[C@@H](Cc1ccc(O)cc1)C(=O)N[C@@H](Cc1ccccc1)C(=O)N[C@@H](CCC(=O)O)C(=O)N[C@@H](Cc1c[nH]c2ccccc12)C(=O)O (H-YFEW-OH) |  | inactive
14 | N[C@@H](Cc1ccc(O)cc1)C(=O)N[C@@H](Cc1ccccc1)C(=O)N[C@@H](CCC(=O)O)C(=O)O (H-Tyr-Phe-Glu-OH) | inactive | inactive
